According to patent US9908826B2, “Synthetic method” (University Court of the University of St. Andrews, priority 2014, dated 2018):
Blank lines part the entries; values can stand above or below the compound they belong to.

Legend:
human oestrogen receptor [1] = biological target: T1, human oestrogen receptor (Homo sapiens, UniProt P03372); test: recombinant yeast oestrogen screen (YES) assay; format: cell-based
T1 construct: expressed in transfected cells; host or cells: recombinant yeast (hER yeast strain developed by Glaxo Welcome)
T1 sequence (P03372 1-595): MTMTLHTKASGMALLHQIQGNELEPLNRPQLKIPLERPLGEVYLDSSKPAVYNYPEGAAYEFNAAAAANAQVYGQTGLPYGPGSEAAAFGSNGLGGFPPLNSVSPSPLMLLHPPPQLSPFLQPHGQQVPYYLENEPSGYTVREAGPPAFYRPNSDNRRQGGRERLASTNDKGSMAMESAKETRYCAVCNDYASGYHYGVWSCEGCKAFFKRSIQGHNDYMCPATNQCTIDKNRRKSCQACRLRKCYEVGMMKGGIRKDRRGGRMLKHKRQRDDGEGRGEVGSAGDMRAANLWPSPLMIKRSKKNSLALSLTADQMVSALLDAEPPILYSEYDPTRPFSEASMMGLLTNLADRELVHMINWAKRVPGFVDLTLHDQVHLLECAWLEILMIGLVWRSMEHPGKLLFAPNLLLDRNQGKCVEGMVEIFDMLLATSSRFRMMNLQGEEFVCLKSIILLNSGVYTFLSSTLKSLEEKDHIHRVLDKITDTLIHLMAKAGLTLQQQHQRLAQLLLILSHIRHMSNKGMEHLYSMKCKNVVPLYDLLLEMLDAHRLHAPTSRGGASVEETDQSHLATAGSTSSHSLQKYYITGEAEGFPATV
Excerpt: In order to test our hypothesis that 3-nonylphenol might show less oestrogenicity than either the linear or the 4-nonylphenol, we have carried out a yeast oestrogen screen (YES) assay which is specific for oestradiol mimics.
The recombinant hER yeast strain was developed by Glaxo Welcome and details of the yeast oestrogen screen have been described previously (Routledge and Sumpter, 1996).
In brief, yeast cells were transfected with the human oestrogen receptor gene together with expression plasmids; the oestrogen response element and the lac-Z gene encoding the enzyme β-galactosidase. The yeast cells were incubated in medium containing the test chemical and the chromogenic substrate, […] (CPRG), and active ligands induced β-gal expression. The β-galactosidase secreted into the medium causes the yellow CPGR to change into a red product, and this is measurable by absorbance.
The medium components were prepared and the standard assay procedure was followed.^32 Chemicals were serially diluted in ethanol and 10 μl volumes were transferred to 96-well flat-bottom plates where the ethanol was allowed to evaporate to dryness. Then, 200 μl medium containing CPRG and yeast (final cell number of 5×10^5 cells/ml) was added to each well. Included with every assay was a negative control, ethanol, and a positive control, 17 β-oestradiol (stock solution of 17 β-oestradiol (2×10^−7 mol dm^−3) serially diluted in ethanol to achieve final concentrations of 1×10^−8 mol dm^−3 to 4.88×10^−12 mol dm^−3 in the wells).
The absorbance values were corrected for cell density using the following equation: Corrected value=chemical540nm−(chemical620nm−ethanol blank620nm).
All chemicals were tested in duplicate and each YES was carried out at least three times.

[2] = tested on: male Japanese Medaka fish; settings: post-hatching stages of development, references 12, 13, 28; cited from earlier work
human oestrogen receptor [3] = biological target: T1, human oestrogen receptor; settings: studied before, reference 13; cited from earlier work
[4] = YES assay, initial 3-NP sample (Pd/C, contains small amounts of ring hydrogenated product)
[5] = second sample, [RhCl(PPh3)3] hydrogenation, no ring hydrogenation products

oestrogenicity relative to 17 β-oestradiol (times as oestrogenic) (human oestrogen receptor [1]; YES assay (conclusion)): ~10^−6 times
oestrogenic response in the YES assay (in words) (human oestrogen receptor [1]; YES assay, FIG. 1 and FIG. 2): full dose response curve
times less potent in oestrogenicity than the banned substance (4-nonylphenol) (human oestrogen receptor [1]; YES assay, 3-nonylphenol prepared by ethenolysis of cardanol (conclusion)): at least 150 times
potency, fold less than 4-NP (mixed isomers) (human oestrogen receptor [1]; [4]): ~300 fold
potency, fold less than 17 β-oestradiol (human oestrogen receptor [1]; [4]): approximately 1.5×10^6 fold
reduction in oestrogenic activity on moving the linear alkyl group from the 4- to the 3-position (vs 4-n-NP) (human oestrogen receptor [1]; YES assay, tested 1×10^−3 to 5×10^−7 mol dm^−3, initial sample (Pd/C hydrogenation)): 10 fold
orders of magnitude less oestrogenic than 4-nonylphenol (human oestrogen receptor [1]; oestrogenicity studies, summary statement): 2 orders of magnitude
increase in oestrogenicity of second sample versus initial sample (human oestrogen receptor [1]; [5]): 2 fold
oestrogenicity, times lower than that of 4-NP mixed isomers (human oestrogen receptor [1]; [5]): 150 times
Structure (SMILES): CCCCCCCCCc1cccc(O)c1 [3-NP, 3-Nonylphenol]

Structure (SMILES): CCCCCCCCCc1ccc(O)cc1 [4-NP, 4-nonylphenol]
endocrine disrupting effect [2]: induce testes-ova

Structure (SMILES): CCCCCCCCCc1ccc(O)cc1 [4-n-NP, 4-nonylphenol]
oestrogenicity compared with commercial 4-nonylphenol with mixed alkyl chains (human oestrogen receptor [3]): lower oestrogenicity
